Laboratory results as given in PubChem BioAssay (NCI).
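Cells were grown in 96-well plates and exposed to each compound for 48 hours at five concentrations; endpoints were interpolated linearly between bracketing concentrations, or set to the highest concentration if not reached. The concentration for full growth arrest is given as TGI.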

Key:
Experiment in all cases: NCI tumour cell line growth inhibition, 48 h
U251 CNS = system: U251 CNS
TK-10 renal = system: TK-10 renal
MCF7 breast = system: MCF7 breast
PC-3 prostate = system: PC-3 prostate
ACHN renal = system: ACHN renal
NCI-H226 lung = system: NCI-H226 lung
M14 melanoma = system: M14 melanoma
T-47D breast = system: T-47D breast
NCI-H522 lung = system: NCI-H522 lung
RXF 393 renal = system: RXF 393 renal
786-0 renal = system: 786-0 renal
SNB-19 CNS = system: SNB-19 CNS
IGROV1 ovarian = system: IGROV1 ovarian
UACC-62 melanoma = system: UACC-62 melanoma
SNB-75 CNS = system: SNB-75 CNS
SK-OV-3 ovarian = system: SK-OV-3 ovarian
UACC-257 melanoma = system: UACC-257 melanoma
NCI/ADR-RES ovarian = system: NCI/ADR-RES ovarian
HT29 colon = system: HT29 colon
SK-MEL-28 melanoma = system: SK-MEL-28 melanoma
MDA-MB-231 breast = system: MDA-MB-231 breast
MALME-3M melanoma = system: MALME-3M melanoma
K-562 leukemia = system: K-562 leukemia
NCI-H23 lung = system: NCI-H23 lung
HCT-116 colon = system: HCT-116 colon
RPMI-8226 leukemia = system: RPMI-8226 leukemia
LOX IMVI melanoma = system: LOX IMVI melanoma
MDA-N = system: MDA-N
EKVX NSCLC = system: EKVX NSCLC
OVCAR-8 ovarian = system: OVCAR-8 ovarian
UO-31 renal = system: UO-31 renal
NCI-H460 lung = system: NCI-H460 lung
OVCAR-3 ovarian = system: OVCAR-3 ovarian
MOLT-4 leukemia = system: MOLT-4 leukemia
HOP-92 NSCLC = system: HOP-92 NSCLC
DU-145 prostate = system: DU-145 prostate
SN12C renal = system: SN12C renal
SK-MEL-2 melanoma = system: SK-MEL-2 melanoma
HOP-62 NSCLC = system: HOP-62 NSCLC
HCT-15 colon = system: HCT-15 colon
OVCAR-4 ovarian = system: OVCAR-4 ovarian
COLO 205 colon = system: COLO 205 colon
KM12 colon = system: KM12 colon
SR leukemia = system: SR leukemia
A498 renal = system: A498 renal
SF-295 CNS = system: SF-295 CNS
OVCAR-5 ovarian = system: OVCAR-5 ovarian
HS 578T breast = system: HS 578T breast
MDA-MB-435 = system: MDA-MB-435
CAKI-1 renal = system: CAKI-1 renal
A549 NSCLC = system: A549 NSCLC
SF-268 CNS = system: SF-268 CNS
SK-MEL-5 melanoma = system: SK-MEL-5 melanoma
BT-549 breast = system: BT-549 breast
SF-539 CNS = system: SF-539 CNS
HL-60(TB) leukemia = system: HL-60(TB) leukemia
SW-620 colon = system: SW-620 colon

Cn1c(=O)c2[nH]c(CSCc3ccccc3)nc2n(C)c1=O
TGI (U251 CNS): > 100 µM
TGI (TK-10 renal): > 100 µM
TGI (MCF7 breast): > 100 µM
TGI (PC-3 prostate): > 100 µM
TGI (ACHN renal): > 100 µM
TGI (NCI-H226 lung): > 100 µM
TGI (M14 melanoma): > 100 µM
TGI (T-47D breast): > 100 µM
TGI (NCI-H522 lung): > 100 µM
TGI (RXF 393 renal): > 100 µM
TGI (786-0 renal): > 100 µM
TGI (SNB-19 CNS): > 100 µM
TGI (IGROV1 ovarian): > 100 µM
TGI (UACC-62 melanoma): > 100 µM
TGI (SNB-75 CNS): > 100 µM
TGI (SK-OV-3 ovarian): > 100 µM
TGI (UACC-257 melanoma): > 100 µM
TGI (NCI/ADR-RES ovarian): > 100 µM
TGI (HT29 colon): > 100 µM
TGI (SK-MEL-28 melanoma): > 100 µM
TGI (MDA-MB-231 breast): > 100 µM
TGI (MALME-3M melanoma): > 100 µM
TGI (K-562 leukemia): > 100 µM
TGI (NCI-H23 lung): > 100 µM
TGI (HCT-116 colon): > 100 µM
TGI (RPMI-8226 leukemia): > 100 µM
TGI (LOX IMVI melanoma): > 100 µM
TGI (MDA-N): > 100 µM
TGI (EKVX NSCLC): > 100 µM
TGI (OVCAR-8 ovarian): > 100 µM
TGI (UO-31 renal): > 100 µM
TGI (NCI-H460 lung): > 100 µM
TGI (OVCAR-3 ovarian): > 100 µM
TGI (MOLT-4 leukemia): > 100 µM
TGI (HOP-92 NSCLC): > 100 µM
TGI (DU-145 prostate): > 100 µM
TGI (SN12C renal): > 100 µM
TGI (SK-MEL-2 melanoma): > 100 µM
TGI (HOP-62 NSCLC): > 100 µM
TGI (HCT-15 colon): > 100 µM
TGI (OVCAR-4 ovarian): > 100 µM
TGI (COLO 205 colon): > 100 µM
TGI (KM12 colon): > 100 µM
TGI (SR leukemia): > 100 µM
TGI (A498 renal): > 100 µM
TGI (SF-295 CNS): > 100 µM
TGI (OVCAR-5 ovarian): > 100 µM
TGI (HS 578T breast): > 100 µM
TGI (MDA-MB-435): > 100 µM
TGI (CAKI-1 renal): > 100 µM
TGI (A549 NSCLC): > 100 µM
TGI (SF-268 CNS): > 100 µM
TGI (SK-MEL-5 melanoma): > 100 µM
TGI (BT-549 breast): > 100 µM
TGI (SF-539 CNS): > 100 µM

Cc1n[nH]c(=S)n1/N=C/c1ccc(-c2ccc(Cl)cc2)o1
TGI (U251 CNS): > 100 µM
TGI (TK-10 renal): > 100 µM
TGI (MCF7 breast): > 100 µM
TGI (PC-3 prostate): > 100 µM
TGI (ACHN renal): > 100 µM
TGI (NCI-H226 lung): > 100 µM
TGI (M14 melanoma): > 100 µM
TGI (T-47D breast): > 100 µM
TGI (NCI-H522 lung): > 100 µM
TGI (RXF 393 renal): > 100 µM
TGI (786-0 renal): > 100 µM
TGI (IGROV1 ovarian): > 100 µM
TGI (SNB-75 CNS): 82.9 µM
TGI (UACC-257 melanoma): > 100 µM
TGI (NCI/ADR-RES ovarian): > 100 µM
TGI (HT29 colon): > 100 µM
TGI (SK-MEL-28 melanoma): > 100 µM
TGI (MDA-MB-231 breast): > 100 µM
TGI (HL-60(TB) leukemia): > 100 µM
TGI (K-562 leukemia): > 100 µM
TGI (NCI-H23 lung): > 100 µM
TGI (HCT-116 colon): > 100 µM
TGI (RPMI-8226 leukemia): > 100 µM
TGI (LOX IMVI melanoma): > 100 µM
TGI (MDA-N): > 100 µM
TGI (EKVX NSCLC): > 100 µM
TGI (OVCAR-8 ovarian): > 100 µM
TGI (UO-31 renal): > 100 µM
TGI (NCI-H460 lung): > 100 µM
TGI (OVCAR-3 ovarian): > 100 µM
TGI (MOLT-4 leukemia): > 100 µM
TGI (HOP-92 NSCLC): > 100 µM
TGI (DU-145 prostate): > 100 µM
TGI (SK-MEL-2 melanoma): > 100 µM
TGI (HOP-62 NSCLC): > 100 µM
TGI (SW-620 colon): > 100 µM
TGI (HCT-15 colon): > 100 µM
TGI (OVCAR-4 ovarian): > 100 µM
TGI (KM12 colon): > 100 µM
TGI (SR leukemia): > 100 µM
TGI (A498 renal): > 100 µM
TGI (SF-295 CNS): > 100 µM
TGI (OVCAR-5 ovarian): > 100 µM
TGI (HS 578T breast): > 100 µM
TGI (MDA-MB-435): > 100 µM
TGI (CAKI-1 renal): > 100 µM
TGI (A549 NSCLC): > 100 µM
TGI (SF-268 CNS): > 100 µM
TGI (SK-MEL-5 melanoma): > 100 µM
TGI (BT-549 breast): > 100 µM
TGI (SF-539 CNS): > 100 µM
